Patent publication US20250154525A1, “PLANT VIRUS MOVEMENT PROTEINS AND METHODS OF USING SAME” (Molecular Transfer, Inc., priority 2016, published 2025)

Tested on: HeLa Cells
Assay: GFP plasmid transfection with DOTMA/DOPE plus surface ligand peptide, fluorescent plate reader (Example 1)
Format: cell-based
Settings: DOTMA/DOPE + peptide linked to R12 or K16; EF1Alpha eGFP plasmid; 42 hours
Procedure: (§1) Cells were plated to so that on the day of transfection the cells were 70% confluent in 96 well tissue culture plates. A DOMTA/DOPE Lipid solution (1:1 molar ratio) at 2 mg/mL in water were mixed with an equal volume cell surface ligand containing adhesion peptide, the plant virus movement protein, or peptide derived therefrom, that had the nucleic acid binding moiety RRRRRRRRRRRR (SEQ ID NO:109) or KKKKKKKKKKKKKKKK (SEQ ID NO: 102) covalently linked to the N-terminus, or C-terminus of each peptide during peptide synthesis. Peptides were at 2 mg/mL in water. The DOTMA/DOPE and the solution containing the cell surface ligand containing adhesion peptide, the plant virus movement protein, or peptide derived therefrom, surface ligand peptide the was diluted 1 to 1 (v/v) in water. DOMTA/DOPE/PEPTIDE solutions were added to 0.1 mL of a plasmid DNA solution (EF1Alpha eGFP plasmid) at 10 μg/mL in OptiMEM.
(§2) All solutions were at room temperature. A volume of 0.2 mL of a 10 μg/mL solution of DNA was aliquoted into each well of a non-tissue cultured treated plate. 1-12 μL of transfection reagents were added to DNA solutions respectively. The transfection reagent and DNA solution was mixed by pipetting up and down twice. Transfection complexes were formed for 10 minutes. After 10 minutes, 0.01 or 0.02 mL of the transfection complex was added to cells. HuVEC, HeLa, human adult keratinocytes, human primary adult fibroblast, and A549 cells all respectively received 0.01 mL of the transfection complex. Human skeletal muscle cells, mouse C2C12 cells, and Jurkat, cells received 0.02 mL of the transfection complex. Cells were incubated for 42 hours at 37° C. at 5% CO2. Plates were read on a fluorescent plate reader. Cells were also examined visually under a microscope to assess the extent of transfection (in terms of the percent of cells transfected) with a fluorescent microscope. Other modes of analysis, for example quantification with B-galactocidase or luciferase reports plasmids can also be used.
(§3) Surface ligand that caused increase expression of GFP over the lipid DOTMA with no surface ligand were considered to enhance transfection or had higher % cells transfected were considered to enhance transfection. Peptides that gave greater than 2-fold enhancement are noted in bold and could be further optimized by adding different transfection enhancers or could be used with different cationic lipids or polymers.
(§4) Tables 2-7, below, provide the results of the transfection enhancements with the various cell types, while Table 8 lists the peptides that were determined by visual inspection to enhance the transfection of the denoted cell lines over the lipid DOTMA.

Substance	Relative Fluorescence of Transfection of HeLa Cells (RF)
344 (KGHRGF) [compound 344]	14415
350 (SIGFRGDGQTC) [compound 350]	13313
342 (TAGSCLRKFSTM) [compound 342]	33666
365 (ISRCQVCMKKRH) [compound 365]	36093
326 (RLVSYSGVLFFLK) [compound 326]	18946
323 (HQQDLGTAGSCLRKFSTMFLF) [compound 323]	14067
353 (KKQRFRHRNRKGYRSQ) [compound 353]	29119
347 (DLGTAGSCLRKFSTM) [compound 347]	22527
454 (TGLSCLQRFTTM) [compound 454]	34550
358 (GHRGPTGRPGKRGKQGQKGDS) [compound 358]	15132
348 (HQQDLGTAGSCLRKFSTM) [compound 348]	22289

Tested on: HuVec Cells
Assay: as above
Format: cell-based
Settings: DOTMA/DOPE + peptide linked to R12 or K16; EF1Alpha eGFP plasmid; 42 hours
Procedure: as §1, §2, §3, §4

Substance	Relative Fluorescence of Transfection of HuVec Cells (RF)
344 (KGHRGF) [compound 344]	11867
350 (SIGFRGDGQTC) [compound 350]	13163
342 (TAGSCLRKFSTM) [compound 342]	12804
365 (ISRCQVCMKKRH) [compound 365]	14764
326 (RLVSYSGVLFFLK) [compound 326]	4932
323 (HQQDLGTAGSCLRKFSTMFLF) [compound 323]	12815
353 (KKQRFRHRNRKGYRSQ) [compound 353]	8772
347 (DLGTAGSCLRKFSTM) [compound 347]	20728
454 (TGLSCLQRFTTM) [compound 454]	13336
358 (GHRGPTGRPGKRGKQGQKGDS) [compound 358]	25398
348 (HQQDLGTAGSCLRKFSTM) [compound 348]	21214

Tested on: Human Fibroblast Cells
Assay: as above
Format: cell-based
Settings: DOTMA/DOPE + peptide linked to R12 or K16; EF1Alpha eGFP plasmid; 42 hours
Procedure: as §1, §2, §3, §4

Substance	Relative Fluorescence of Transfection of Human Fibroblast Cells (RF)
344 (KGHRGF) [compound 344]	12704
350 (SIGFRGDGQTC) [compound 350]	7105
342 (TAGSCLRKFSTM) [compound 342]	9525
365 (ISRCQVCMKKRH) [compound 365]	5219
326 (RLVSYSGVLFFLK) [compound 326]	3070
323 (HQQDLGTAGSCLRKFSTMFLF) [compound 323]	4826
353 (KKQRFRHRNRKGYRSQ) [compound 353]	8653
347 (DLGTAGSCLRKFSTM) [compound 347]	9255
454 (TGLSCLQRFTTM) [compound 454]	7568
358 (GHRGPTGRPGKRGKQGQKGDS) [compound 358]	5665
348 (HQQDLGTAGSCLRKFSTM) [compound 348]	11802

Tested on: Jurkat Cells
Assay: as above
Format: cell-based
Settings: DOTMA/DOPE + peptide linked to R12 or K16; EF1Alpha eGFP plasmid; 42 hours
Procedure: as §1, §2, §3, §4

Substance	Relative Fluorescence of Transfection of Jurkat Cells (RF)
344 (KGHRGF) [compound 344]	10160
350 (SIGFRGDGQTC) [compound 350]	9184
342 (TAGSCLRKFSTM) [compound 342]	12825
365 (ISRCQVCMKKRH) [compound 365]	5298
326 (RLVSYSGVLFFLK) [compound 326]	3018
323 (HQQDLGTAGSCLRKFSTMFLF) [compound 323]	2900
353 (KKQRFRHRNRKGYRSQ) [compound 353]	11107
347 (DLGTAGSCLRKFSTM) [compound 347]	17720
454 (TGLSCLQRFTTM) [compound 454]	8224
358 (GHRGPTGRPGKRGKQGQKGDS) [compound 358]	18820
348 (HQQDLGTAGSCLRKFSTM) [compound 348]	15585

Tested on: NL-1 iPS Cells
Assay: as above
Format: cell-based
Settings: DOTMA/DOPE + peptide linked to R12 or K16; EF1Alpha eGFP plasmid; 42 hours
Procedure: as §1, §2, §3, §4

Substance	Relative Fluorescence of Transfection of NL-1 iPS Cells (RF)
344 (KGHRGF) [compound 344]	10895
350 (SIGFRGDGQTC) [compound 350]	19132
342 (TAGSCLRKFSTM) [compound 342]	11493
365 (ISRCQVCMKKRH) [compound 365]	6364
326 (RLVSYSGVLFFLK) [compound 326]	9239
323 (HQQDLGTAGSCLRKFSTMFLF) [compound 323]	21694
353 (KKQRFRHRNRKGYRSQ) [compound 353]	9248
347 (DLGTAGSCLRKFSTM) [compound 347]	21865
454 (TGLSCLQRFTTM) [compound 454]	18100
358 (GHRGPTGRPGKRGKQGQKGDS) [compound 358]	21956
348 (HQQDLGTAGSCLRKFSTM) [compound 348]	21645

Tested on: C2C12 Cells
Assay: as above
Format: cell-based, mouse
Settings: DOTMA/DOPE + peptide linked to R12 or K16; EF1Alpha eGFP plasmid; 42 hours
Procedure: as §1, §2, §3, §4

Substance	Relative Fluorescence of Transfection of C2C12 Cells (RF)
344 (KGHRGF) [compound 344]	1678
350 (SIGFRGDGQTC) [compound 350]	2631
342 (TAGSCLRKFSTM) [compound 342]	9496
365 (ISRCQVCMKKRH) [compound 365]	5390
326 (RLVSYSGVLFFLK) [compound 326]	8553
323 (HQQDLGTAGSCLRKFSTMFLF) [compound 323]	7698
353 (KKQRFRHRNRKGYRSQ) [compound 353]	4291
347 (DLGTAGSCLRKFSTM) [compound 347]	4457
454 (TGLSCLQRFTTM) [compound 454]	9280
358 (GHRGPTGRPGKRGKQGQKGDS) [compound 358]	2271
348 (HQQDLGTAGSCLRKFSTM) [compound 348]	8625

Tested on: HeLa Cells
Assay: GFP transfection with DOTMA/SEQ ID NO: 72 (fusogenic peptide)/peptide compared with Lipofectamine 2000
Format: cell-based
Settings: 0.1 μL of DOTMA/SEQ ID NO: 72/Peptide in well of a 96 well plate
Procedure: as §1, §2
The fusogenic peptide was added to the DOMTA/peptide formulation to achieve a final concentration of 0.1 mg/mL to see if transfection reagents were further enhanced by the addition of a fusogenic peptide and could provide higher transfection efficiency into HeLa cells and expression than the commercially available Lipofectamine 2000.

Substance	Relative Fluorescence DOTMA/SEQ ID NO: 72/Peptide, HeLa Cells (RF)
344 (KGHRGF) [compound 344]	13315
350 (SIGFRGDGQTC) [compound 350]	24092
342 (TAGSCLRKFSTM) [compound 342]	41299
365 (ISRCQVCMKKRH) [compound 365]	26620
326 (RLVSYSGVLFFLK) [compound 326]	6887
323 (HQQDLGTAGSCLRKFSTMFLF) [compound 323]	15537
353 (KKQRFRHRNRKGYRSQ) [compound 353]	36315
347 (DLGTAGSCLRKFSTM) [compound 347]	23188
454 (TGLSCLQRFTTM) [compound 454]	34033
358 (GHRGPTGRPGKRGKQGQKGDS) [compound 358]	12331
348 (HQQDLGTAGSCLRKFSTM) [compound 348]	17413

Same assay, conditions: 0.2 μL of DOTMA/SEQ ID NO: 72/Peptide in well of a 96 well plate

Substance	Relative Fluorescence DOTMA/SEQ ID NO: 72/Peptide, HeLa Cells (RF)
344 (KGHRGF) [compound 344]	16387
350 (SIGFRGDGQTC) [compound 350]	23238
342 (TAGSCLRKFSTM) [compound 342]	36040
365 (ISRCQVCMKKRH) [compound 365]	43775
326 (RLVSYSGVLFFLK) [compound 326]	9487
323 (HQQDLGTAGSCLRKFSTMFLF) [compound 323]	16620
353 (KKQRFRHRNRKGYRSQ) [compound 353]	44772
347 (DLGTAGSCLRKFSTM) [compound 347]	21493
454 (TGLSCLQRFTTM) [compound 454]	37099
358 (GHRGPTGRPGKRGKQGQKGDS) [compound 358]	12683
348 (HQQDLGTAGSCLRKFSTM) [compound 348]	18615

Same assay, conditions: 0.3 μL of DOTMA/SEQ ID NO: 72/Peptide in well of a 96 well plate

Substance	Relative Fluorescence DOTMA/SEQ ID NO: 72/Peptide, HeLa Cells (RF)
344 (KGHRGF) [compound 344]	12564
350 (SIGFRGDGQTC) [compound 350]	19802
342 (TAGSCLRKFSTM) [compound 342]	28841
365 (ISRCQVCMKKRH) [compound 365]	36054
326 (RLVSYSGVLFFLK) [compound 326]	10330
323 (HQQDLGTAGSCLRKFSTMFLF) [compound 323]	10839
353 (KKQRFRHRNRKGYRSQ) [compound 353]	36882
347 (DLGTAGSCLRKFSTM) [compound 347]	16814
454 (TGLSCLQRFTTM) [compound 454]	27412
358 (GHRGPTGRPGKRGKQGQKGDS) [compound 358]	13686
348 (HQQDLGTAGSCLRKFSTM) [compound 348]	16164

Same assay, conditions: 0.4 μL of DOTMA/SEQ ID NO: 72/Peptide in well of a 96 well plate

Substance	Relative Fluorescence DOTMA/SEQ ID NO: 72/Peptide, HeLa Cells (RF)
344 (KGHRGF) [compound 344]	12511
350 (SIGFRGDGQTC) [compound 350]	22255
342 (TAGSCLRKFSTM) [compound 342]	18351
365 (ISRCQVCMKKRH) [compound 365]	21540
326 (RLVSYSGVLFFLK) [compound 326]	9227
323 (HQQDLGTAGSCLRKFSTMFLF) [compound 323]	9244
353 (KKQRFRHRNRKGYRSQ) [compound 353]	25802
347 (DLGTAGSCLRKFSTM) [compound 347]	14140
454 (TGLSCLQRFTTM) [compound 454]	16023
358 (GHRGPTGRPGKRGKQGQKGDS) [compound 358]	11097
348 (HQQDLGTAGSCLRKFSTM) [compound 348]	15054

Tested on: some examined cell types
Assay: Summary of Example 1: transfection expression and % cells transfected over the no peptide control
Format: cell-based
Settings: on some examined cell types
Procedure: as §1, §2, §3

Substance	transfection expression and % cells transfected over the no peptide control
344 (KGHRGF) [compound 344]	increased transfection expression and the % cells transfected
350 (SIGFRGDGQTC) [compound 350]	increased transfection expression and the % cells transfected
342 (TAGSCLRKFSTM) [compound 342]	increased transfection expression and the % cells transfected
365 (ISRCQVCMKKRH) [compound 365]	increased transfection expression and the % cells transfected
326 (RLVSYSGVLFFLK) [compound 326]	increased transfection expression and the % cells transfected
323 (HQQDLGTAGSCLRKFSTMFLF) [compound 323]	increased transfection expression and the % cells transfected
353 (KKQRFRHRNRKGYRSQ) [compound 353]	increased transfection expression and the % cells transfected
347 (DLGTAGSCLRKFSTM) [compound 347]	increased transfection expression and the % cells transfected
454 (TGLSCLQRFTTM) [compound 454]	increased transfection expression and the % cells transfected
358 (GHRGPTGRPGKRGKQGQKGDS) [compound 358]	increased transfection expression and the % cells transfected
348 (HQQDLGTAGSCLRKFSTM) [compound 348]	increased transfection expression and the % cells transfected
